Test results: PMC3996151, “Safety and pharmacological characterization of the molecular tweezer CLR01 – a broad-spectrum inhibitor of amyloid proteins’ toxicity” (BMC Pharmacology & Toxicology, 2014)
Marks after values point to notes of the source that are not given here.

Tested on: C57BL/6J mice
Experiment: Acute toxicity: single IP injection, behaviour, histopathology and serum chemistry after 24 h
Format: in vivo, mouse
Settings: for Alanine aminotransferase / Albumin / Alkaline phosphatase / Aspartate aminotransferase / Blood urea nitrogen / Cholesterol / Creatinine / Glucose / Lactate dehydrogenase / Total bilirubin / Total protein: serum, acute, mean
Experimental: For acute-toxicity studies, 2-m old C57BL/6J mice were administered saline-vehicle, 10 mg/kg, or 100 mg/kg CLR01 by a single intraperitoneal (IP) injection. The mice were sacrificed 24-h after the injection. For chronic toxicity studies, 2-m old C57BL/6J mice were administered saline-vehicle, 3 mg/kg, or 10 mg/kg CLR01 by daily IP injection for 30 days. Acute-study mice were visually monitored for 1 h after injection and then every 50 min for 10 min over the first 6 h of the experiment for changes in activity and behavior. The mice also were monitored every 110 min for 10 min during the last 6 h of the experiment until they were sacrificed. Chronic-study mice were monitored for 1 h after injection and then 3 times a day for 10 min each, every day of the first week. During that week there were no appreciable changes in the behavior, appearance, or weight of the mice. Therefore, monitoring was reduced to twice a day during the remainder of the experiment. On all occasions, the mice were monitored for any signs of severe toxicity, including bruising or bleeding, pale mucous membranes or extremities, diarrhea, dehydration, neurological signs, such as difficulty ambulating or paralysis, tachypnea or dyspnea, or abdominal distension.
Following the treatment, mice were anesthetized with pentobarbital and blood was collected by cardiac puncture and placed in tubes containing a clot activator for serum separation (Capiject T-MG tubes, Terumo Medical Products, Somerset, NJ). Then, the lungs were filled through the trachea with 4% paraformaldehyde to prevent collapse, and tissues (brain, heart-lung, liver, kidney, and spleen) were collected and fixed for 72 h in 4% paraformaldehyde at a ratio of ~1:10 tissue:fixative (v/v). Tissues then were transferred into a 70%-ethanol solution and transferred to the UCLA Mouse Pathology Core for paraffin embedding, sectioning, and tissue histopathology analysis. Serum was analyzed by the UCLA Division of Laboratory Animal Medicine (DLAM) Animal Serology & Molecular Diagnostic Laboratory for an 11-panel serum chemical analysis using the ACE Alera Clinical Chemistry system (Alfa Wassermann Diagnostic Technologies, West Caldwell, NJ). The panel included: alanine aminotransferase, aspartate aminotransferase, albumin, alkaline phosphatase, creatinine, total bilirubin, lactate dehydrogenase, blood urea nitrogen, cholesterol, total protein, and glucose.
If CLR01 indeed operates by a process-specific mechanism and remodels the abnormal aggregation of amyloidogenic proteins at substantially lower concentrations than concentrations that would perturb normal physiological processes, one would expect the compound to have a high therapeutic index. To calculate the therapeutic index, a lethal dose must be reached. […] The next rational step was to test the safety margin of CLR01 in vivo. Based on the in vitro and cell culture data, we expected that 100 mg/kg would be lethal to mice and therefore used it as the highest dose in our safety-evaluation experiments. We assessed the safety of CLR01 in 2-m old, male, WT mice either 24 h following a single IP injection of 10 or 100 mg/kg (acute administration) or after daily IP injection of 3 or 10 mg/kg for 30 days (chronic administration). Following euthanasia, serum was collected for chemical analysis and tissues were harvested for histopathology evaluation.

[1] = 2-m old WT mice, 24 h after single IP dose 10 mg/kg, N = 8
[2] = 2-m old WT mice, 24 h after single IP dose 100 mg/kg, N = 8
[3] = 2-m old WT mice, 24 h after single IP dose 100 mg/kg, N = 8, p < 0.001 vs control
[4] = 2-m old WT mice, 24 h after single IP dose 100 mg/kg, N = 8, p < 0.01 vs control

SMILES: O=P(O)(O)Oc1c2c(c(OP(=O)(O)O)c3c1C1CC3c3cc4c(cc31)C1CC4c3ccccc31)C1CC2c2cc3c(cc21)C1CC3c2ccccc21 [CLR01]
- Single non-lethal dose relative to the efficacious dose (100 mg/kg single dose): 2,500 fold
- Alanine aminotransferase [1]: 36.1 U/L
- Albumin [1]: 2.3 g/dL
- Alkaline phosphatase [1]: 126.1 U/L
- Aspartate aminotransferase [1]: 89.5 U/L
- Blood urea nitrogen [1]: 19.8 mg/dL
- Cholesterol [1]: 91.5 mg/dL
- Creatinine [1]: 0.2 mg/dL
- Glucose [1]: 297.8 mg/dL
- Lactate dehydrogenase [1]: 325.2 U/L
- Total bilirubin [1]: 0.2 mg/dL
- Total protein [1]: 3.7 g/dL
- Albumin [2]: 1.9 g/dL
- Alkaline phosphatase [2]: 101.5 U/L
- Blood urea nitrogen [2]: 22.0 mg/dL
- Creatinine [2]: 0.4 mg/dL
- Total bilirubin [2]: 0.3 mg/dL
- Total protein [2]: 3.6 g/dL
- Alanine aminotransferase [3]: 1282.9*** U/L
- Glucose [3]: 104.3*** mg/dL
- Lactate dehydrogenase [3]: 2439.8*** U/L
- Aspartate aminotransferase [4]: 565.3** U/L
- Cholesterol [4]: 20.8** mg/dL
- Behavior (levels and type of activity and grooming) (single IP 10 mg/kg): behaved indistinguishably from control mice
- Incidence of liver degeneration and necrosis (single IP 10 mg/kg, 24 h): one of eight
- Duration of decreased activity and droopy eyelids in some mice (single IP 100 mg/kg): up to 2 h
- Duration of signs of distress following the injection (single IP 100 mg/kg): ~ 30 min
- Behavior after injection (single IP 100 mg/kg, 2-m old WT mice): obvious signs of distress
- Survival (single IP 100 mg/kg, 24 h): all the mice in the high-dose group survived
- Liver histopathology (single IP 100 mg/kg, 24 h, all mice, centrilobular and midlobular regions): liver degeneration and necrosis
- Histopathology of heart, lung, spleen and brain (single IP 10 or 100 mg/kg, 24 h): indistinguishable from those of control mice
- Lethal dose (single IP injection, mice): > 100 mg/kg
